Numbers after ± are expanded uncertainties.
Test: refractive index (Na D-line) (dimensionless)
Settings: 293.1 K; 101.33 kPa; Liquid; Standard Abbe refractometry

Row | refractive index | SMILES
1 | 1.5024 ± 0.0007 | c1ccccc1 [benzene]
2 | 1.3882 ± 0.0007 | CCCCCCC [heptane]
3 | 1.484 ± 0.0007 | O=CN1CCOCC1 [N-formylmorpholine]

Row | SMILES | refractive index
4 | Cc1ccccc1 [toluene] | 1.4873 ± 0.0007
5 | Cc1cccc(C)c1 [1,3-dimethylbenzene] | 1.4943 ± 0.0007

— the NIST ThermoML archive (doi:10.1016/j.jct.2006.12.004)
